{"source": "patent EP4389746A2", "about": "“P2X3 RECEPTOR ANTAGONISTS” (Recordati Industria Chimica E Farmaceutica SPA, priority 2022, dated 2024)", "test_system": "Sprague-Dawley Rats", "test": "Two bottle taste test in rats: dysgeusia effect of P2X3 antagonists", "format": "in vivo", "conditions": "rats water fasted overnight; bottles presented 30 minutes after treatment for 15 minutes (Fig. 4)", "description": "C57BL/6J mice, Hartley Guinea pigs and Sprague-Dawley Rats from Charles River Italy were used in the experiments. Animals were housed with free access to food and water and maintained on a forced 12 hr light-dark cycle at 22-24°C for at least one week before the experiments were carried out. The animals were handled according to internationally accepted principles for care of laboratory animals (Directive 2010/63/EU of the European Parliament and of the Council of 22 September 2010).\n(Fig 3) \"Two bottle taste test\" in rats - Dysgeusia effect of P2X3 antagonists\nRats were water fasted overnight. The day of the experiment the animals were treated with tested compounds and 30 minutes later two bottles were presented for 15 minutes, the first one containing water and the second bottle containing Quinine, a substance showing a bitter taste. The volume of liquid drunk in 15 minutes from each bottle was recorded and expressed as percentage of preference (Fig.4). Statistical analysis was performed on absolute values (mean ± SEM) using one-way ANOVA and Tukey's test for multiple comparisons.", "data": [{"smiles": "COc1cc(C(C)C)c(Oc2cnc(N)nc2N)cc1S(N)(=O)=O", "note": "[Gefapixant, reference compound]", "values": [{"measurement": "preference between water and Quinine", "result": "showed altered taste function and poor preference between water and Quinine bottles"}]}]}
